Data: US5376681A, “Aminocoumaran derivatives, their production and use” (Takeda Chemical Industries, Ltd., priority 1990, dated 1994)

System: behavior induced by spinal intrathecal injection of FeCl2 in mice
Assay: Effect of drugs on the change of the behavior induced by spinal intrathecal injection of FeCl2 in mice (Experiment 1)
Type: in vivo, mice (male Slc: ICR)
Conditions: oral, 30 minutes prior to ferrous chloride injection; for % inhibition: 100 mg/kg, calculated from mean scores vs saline; for Mean Score Administration of Test Compound of 100 mg/kg: behavioral score 0 (normal) to 5 (death), 10 mice per group
Method: Effect of drugs on the change of the behavior induced by spinal intrathecal injection of FeCl2 in mice
Male Slc: ICR mice (5 weeks) (10 mice per group) were used. Saline (5 μl/mouse) containing 50 mM FeCl2 was injected into the subarachnoid space between the 6th lumbar segment and the 1st sacral and scored as follows.
Percent inhibitions were calculated based on the scores evaluated above. The test compounds were orally administered 30 minutes prior no ferrous chloride injection. […]

SMILES | % inhibition [%] | Mean Score Administration of Test Compound of 100 mg/kg
Cc1c(C)c2c(c(C)c1N)CC(C)(Cc1ccccc1)O2 (stereo not shown) [Example 1, 5-Amino-2-benzyl-2,4,6,7-tetramethyl-2,3-dihydrobenzofuran] | 73.9 | 1.2
CCNc1c(C)c(C)c2c(c1C)CC(C)(CCc1ccc(F)cc1)O2 (stereo not shown) [Example 47, 5-Ethylamino-2-[2-(4-fluorophenyl)ethyl]-2,4,6,7-tetramethyl-2,3-dihydrobenzofuran] | 79.6 | 1.0
Cc1c(C)c2c(c(C)c1N)CC(C)(CCc1ccccc1)O2 (stereo not shown) [Example 84, 5-Amino-2,4,6,7-tetramethyl-2-(2-phenylethyl)-2,3-dihydrobenzofuran] | 89.1 | 0.5
Cc1c(C)c2c(c(C)c1N)CC(C)(CCc1ccc(F)cc1)O2 (stereo not shown) [Example 85, 5-Amino-2,4,6,7-tetramethyl-2-[2-(4-fluorophenyl)ethyl]-2,3-dihydrobenzofuran] | 87.0 | 0.6
Cc1c(C)c2c(c(C)c1N)CC(C)(C)O2 [Example 103, 5-Amino-2,2,4,6,7-pentamethyl-2,3-dihydrobenzofuran] | 98.0 | 0.1
